# Laboratory results published in patent publication US6632794B1, “Insulin-like growth factor agonist molecules” (Genentech, Inc., priority 1997, dated 2003).
# “And” between values parts separate entries of the source, which are not always exact repeats. Equal values may be shown once. Positions of bridges follow the written chain, without caps; N, C: chain ends. Residues, ends and D or L forms follow the SMILES beside them.
# Columns and labels:
# [1] = molecular target: T1, recombinant human (rh) IGFBP-1 (Homo sapiens, UniProt P08833); experiment: ^125I-IGF-I competitive binding plate assay, IGFBP-1; conditions: FIG. 36
# T1 sequence (P08833 26-259): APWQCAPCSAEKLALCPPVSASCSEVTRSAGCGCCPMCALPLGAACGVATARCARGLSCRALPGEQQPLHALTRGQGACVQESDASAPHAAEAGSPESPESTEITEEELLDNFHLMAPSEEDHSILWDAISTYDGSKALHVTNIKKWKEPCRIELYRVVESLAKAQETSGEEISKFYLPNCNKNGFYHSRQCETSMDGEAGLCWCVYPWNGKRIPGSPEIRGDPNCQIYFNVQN
# Procedure: (§1) The mutant (Leu^24,Ala^31)hIGF-I was also tested for its ability to displace radio-labeled rhIGF-I off the IGFBPs in a competitive binding assay. This assay involves coating recombinant human (rh) IGFBP-1 or rhIGFBP-3 (160 ng/ml) onto 96-well plates overnight, blocking the plates for one hour with 0.5% BSA, adding rhIGF-I (250-0.08 ng/ml) or (Leu^24,Ala^31)hIGF-I for 1 hour, then adding 20,000 cpm of ^125I-IGF-I and incubating for 2 hours before washing and counting.
# (§2) As an additional assay of peptide activity, several peptides were tested in an assay using ^125I-labeled IGF-I to measure inhibition of IGFBP binding, as described in Example 1 (Assay 3). Serial dilutions of peptide were added to an IGFBP-1 or an IGFBP-3 plate. Thereafter, ^125I-labeled IGF-I was added and the plates were incubated for 2 hours. The plates were then washed and counted to determine the amount of bound IGF-I.
# IGFBP-3 [2] = molecular target: T2, IGFBP-3 (Homo sapiens, UniProt P17936); experiment: KIRA assay of IGF-I activity with IGF-I plus IGFBP-3 and peptide; type: cell-based; conditions: FIG. 37D
# T2 sequence (P17936 28-291): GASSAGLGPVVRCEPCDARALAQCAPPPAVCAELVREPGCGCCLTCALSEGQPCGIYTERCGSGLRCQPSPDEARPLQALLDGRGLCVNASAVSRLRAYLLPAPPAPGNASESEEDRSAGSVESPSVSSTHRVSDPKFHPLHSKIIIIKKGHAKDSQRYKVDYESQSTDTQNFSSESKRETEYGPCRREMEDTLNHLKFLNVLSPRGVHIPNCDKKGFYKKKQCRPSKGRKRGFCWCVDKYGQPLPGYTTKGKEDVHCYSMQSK
# Procedure: (§3) C. In Vitro Activation (KIRA)
# (§4) The ability of several synthetic peptides to block IGF-I binding to IGFBPs and release functional IGF-I was tested in a KIRA assay of IGF-I activity, as described in Example 1. Cells were treated with IGF-I alone, peptide alone, peptide plus IGF-I, IGF-I plus binding protein (IGFBP-1 or IGFBP-3), or IGF-I plus binding protein (IGFBP-1 or IGFBP-3) and peptide.
# It is believed that this would drop to 30 uM with a 1:1 ratio.
# IGFBP-1 [3] = molecular target: T3, IGFBP-1 (Homo sapiens, UniProt P08833); experiment: Biotin-BP plate (ELISA) assay, biotinylated IGFBP-1 binding to IGF-I; conditions: for IC50: 20 nM biotinylated IGFBP-1, IGF-I coated plate, read-out: ELISA IC50, inhibition of IGF-I binding to IGFBP-1
# T3 construct: biotin (chemical label, EZ-LINK NHS-SS-Biotin)
# T3 sequence (P08833 26-259): T1 sequence (P08833 26-259)
# Procedure: 1. Biotin-BP Assay (for IGFBP-1 Binders)
# (§5) For inhibition of IGFBP-1 binding, IGFBP-1 (as well as IGFBP-3 as a control) were biotinylated as described above. MAXISORP™plates were coated and blocked as described above, using 2 μg/mL IGF-I. In a separate plate, serial dilutions of peptide were premixed with a constant concentration (20 nM) of biotinylated IGFBP-1. After 20 min. at room temperature, the mixture was added to the IGF-I plate. The peptide/IGFBP mix was then removed and the plate was washed ten times with PBS buffer containing 0.05% TWEEN-20™ surfactant. Bound biotin-IGFBP-1 was then detected using streptavidin-conjugated horse radish peroxidase, and a chromogenic substrate.
# A second series of peptides made use of non-natural amino acids to probe whether other structural features such as an added methyl group at the alpha carbon, or an isomer (D-alanine) could affect peptide binding to IGFBP-1.
# (§6) Substitutions at the N-terminus or C-terminus yielded affinity improvements. […] All of these peptides had similar or improved apparent affinity for IGFBP-1 as compared with bp1-01 and bp1-02 and are thus expected to increase the availability of IGF-I in an in vitro cell culture assay.
# IGFBP-1 [4] = molecular target: T3, IGFBP-1; experiment: KIRA assay of IGF-I activity with IGF-I plus IGFBP-1 and peptide; type: cell-based; conditions: for IC50: peptide plus IGF-I plus IGFBP-1, read-out: IC50 for blocking the inhibition of IGF-I activity by IGFBP-1 (KIRA)
# Procedure: as §3, §4
# IGFBP-3 [5] = molecular target: T2, IGFBP-3; experiment: BIAcore competition assay, IGFBP-3 binding to immobilized IGF-II; conditions: 20 nM IGFBP-3; approximately 1500 RU immobilized IGF-II; read-out: IC50, inhibition of IGFBP-3 binding to IGF-II (BIAcore)
# Procedure: D. BIAcore™ Competition Assay (for IGFBP-3 Binders)
# IGF-II was immobilized on a dextran chip for inhibition assays using a BIAcore™ 2000 surface-plasmon-resonance device (BIAcore, Inc., Piscataway, N.J.) to measure free binding protein. IGF-II was biotinylated as described above, and injected over a chip to which streptavidin had been coupled (BIAcore, Inc.) to give approximately 1500 RU of immobilized IGF-II. […] Serial dilutions of peptide were mixed with a constant concentration (20 nM) of IGFBP-3. After incubation for ≧1 hour at room temperature, an aliquot of 20 μl was injected at a flow rate of 20 μl/min over the IGF-II chip. Following the injection, a response reading was taken to measure the relative amount of IGFBP-3 bound to the IGF-II.
# IGFBP-3 [6] = molecular target: T2, IGFBP-3; experiment: BIAcore competition assay, IGFBP-3 binding to immobilized IGF-I; conditions: bp3-01-ox variants by BIAcore; wt = bp3-01-ox
# Procedure, shortened: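 IGFBP-3 (40 nM) was preincubated >1 h at room temperature with serial peptide dilutions, then injected at 20 μL/min over IGF-I immobilized on a dextran chip. The surface-plasmon-resonance response after injection gave the relative amount of free IGFBP-3 bound to IGF-I.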
# IGFBP-3 [7] = molecular target: T2, IGFBP-3; experiment: ^125I-IGF-I competitive binding plate assay, IGFBP-3; conditions: FIG. 35
# Procedure: as §1, §2
# IGFBP-1 [8] = molecular target: T3, IGFBP-1; experiment: BIAcore kinetics on immobilized IGFBP-1; type: binding; conditions: IGFBP-1 coupled to dextran chip
# Text: The kinetics of bp1-01 peptide variants were examined in a BIAcore™ (BIAcore, Inc., Piscataway, N.J.) assay using IGFBP-1 covalently coupled via EDC/NHS (as described by the manufacturer) to a dextran chip. […] The latter implies a half-life for peptide dissociation from IGFBP-1 of approximately 28 sec. The association rate constant is moderately fast, consistent with the notion that the peptide may not undergo significant conformation change upon binding to IGFBP-1.
# IGFBP-1 [9] = molecular target: T3, IGFBP-1; experiment: BIAcore competition assay, IGFBP-1 binding to IGF-I; conditions: bp1-01 Ala-scan variants by BIAcore; wt = bp1-01
# Procedure: (§7) Two series of synthetic peptide variants were generated to determine which side chains of the bp1-01 peptide might contribute directly to binding IGFBP-1. In the first series an alanine-scanning approach (Cunningham and Wells, Science, 244: 1081-1085 (1989)) was used to remove that portion of each side chain beyond the beta carbon. The contribution of these atoms to the free energy of binding of the peptide to IGFBP-1 was then assessed by measuring the potency (IC50) of the variant for inhibiting IGFBP-1 binding to IGF-I or IGF-II in a BIAcore™competition assay, analogous to that described for IGFBP-3 (see Example 7).
# as §6
# IGFBP-3 [10] = molecular target: T2, IGFBP-3; experiment: Biotin-BP plate assay, biotinylated IGFBP-3 binding to IGF-I (control); conditions: FIG. 34
# Procedure: as §5
# IGFBP-1 [11] = molecular target: T3, IGFBP-1; experiment: BIAcore competition assay, IGFBP-1 binding to IGF-II; conditions: bp1-01 Ala-scan variants by BIAcore
# Procedure: as §7
# IGFBP-1 [12] = molecular target: T3, IGFBP-1; experiment: IGF-blocking phage assay on IGFBP-1 coated plate; type: binding; conditions: FIG. 28
# Procedure: To distinguish among these possibilities, phage clones were tested for the ability to bind to IGFBP-1 or IGFBP-3 in the presence and absence of IGF-I.
# IGFBP-1 or IGFBP-3 was coated directly onto MAXISORP™ plates as above. Phage from clonal cultures were mixed with IGF-I (100 nM final concentration), and incubated with the immobilized IGFBP for 1 hour at room temperature. The plates were then washed ten times, as above, and a solution of rabbit anti-phage antibody mixed with a goat-anti-rabbit conjugate of horse radish peroxidase was added. After an incubation of 1 hour at room temperature, the plates were developed with a chromogenic substrate, o-phenylenediamine (Sigma). The reaction was stopped with addition of ½ volume of 2.5 M H2SO4. Optical density at 490 nm was measured on a spectrophotometric plate reader.
# These peptides are thus likely to occupy an overlapping site with the IGF-binding epitope on IGFBP-3. […] Additional peptide-phage clones were screened similarly, at a low concentration of phage, with and without IGF-I.
# [13] = g8 bp1-01 selectants by ELISA plate assay, wt = bp1-01
compound,measurement,setting,value
CSCC[C@H](NC(=O)[C@H](CC(N)=O)NC(=O)[C@@H]1CSSC[C@H](NC(=O)[C@@H](NC(=O)[C@H](CCC(=O)O)NC(=O)[C@H](CCC(=O)O)NC(=O)[C@@H](N)CO)C(C)C)C(=O)N[C@@H](Cc2c[nH]c3ccccc23)C(=O)N2CCC[C@H]2C(=O)N[C@@H](C(C)C)C(=O)N[C@@H](C)C(=O)N[C@@H](CCC(=O)O)C(=O)N[C@@H](Cc2c[nH]c3ccccc23)C(=O)N[C@@H](Cc2ccc(O)cc2)C(=O)N[C@@H](CC(C)C)C(=O)N1)C(=O)N[C@@H](Cc1c[nH]c2ccccc12)C(=O)NCC(=O)O [BP3-01-ox] (H-SEEVCWPVAEWYLCNMWG-OH; disulfide 5-14; N-terminus and C-terminus assumed),inhibition of ^125I-IGF-I binding to an IGFBP-1 coated plate,[1],did not inhibit
same,effect on IGF-I activity in KIRA with IGF-I plus IGFBP-3,IGFBP-3 [2],no significant effect
same,inhibition of biotinylated IGFBP-1 binding to IGF-I plate,IGFBP-1 [3]; FIG. 33,little or no inhibition
same,effect on IGF-I activity in KIRA with IGF-I plus IGFBP-1,IGFBP-1 [4]; FIG. 37B,no significant effect
same,IC50,IGFBP-3 [5],0.92 µM
same,IGF-I Inhibition IC50 (mut)/IC50 (wt),IGFBP-3 [6],1
same,inhibition of ^125I-IGF-I binding to an IGFBP-3 plate,IGFBP-3 [7],inhibition
CC(C)C[C@@H]1NC(=O)[C@H](Cc2c[nH]c3ccccc23)NC(=O)[C@H](CCC(N)=O)NC(=O)[C@H](CC(C)C)NC(=O)[C@@H]2CCCN2C(=O)CNC(=O)[C@H](C)NC(=O)[C@H](CCCNC(=N)N)NC(=O)[C@@H](N)CSSC[C@@H](C(=O)N[C@@H](CCC(=O)O)C(=O)N[C@@H](CCCCN)C(=O)N[C@@H](Cc2ccc(O)cc2)C(=O)N[C@@H](Cc2ccccc2)C(=O)NCC(N)=O)NC1=O [bp1-01] (H-CRAGPLQWLCEKYFG-NH2; disulfide 1-10; N-terminus assumed),effect on IGF-I activity in KIRA with IGF-I plus IGFBP-3,IGFBP-3 [2],Neither of these peptides showed activity
same,IC50,IGFBP-1 [3],~0.18 µM and 0.18 µM
same,IGF-I Inhibition IC50 (mut)/IC50 (wt),IGFBP-1 [3]; C-terminal bp1-01 variants by ELISA,1
same,IGF-I Inhibition IC50 (mut)/IC50 (wt),"IGFBP-1 [3]; bp1-01 non-natural variants by ELISA, a = D-alanine, aib = alpha-aminoisobutyrate",1
same,IGF-I Inhibition IC50 (mut)/IC50 (wt),IGFBP-1 [3]; [13],1
same,dissociation rate constant / dissociation kinetics,IGFBP-1 [8],too rapid to measure
same,IGF-I Inhibition IC50 (mut)/IC50 (wt),IGFBP-1 [9],1
same,inhibition of biotinylated IGFBP-3 binding to IGF-I plate,IGFBP-3 [10],no inhibition
same,IC50,IGFBP-1 [4],0.397 µM
same,IGF-II Inhibition IC50 (mut)/IC50 (wt),IGFBP-1 [11],1
CC(C)C[C@@H]1NC(=O)[C@H](Cc2c[nH]c3ccccc23)NC(=O)[C@H](CCC(N)=O)NC(=O)[C@H](CC(C)C)NC(=O)[C@@H]2CCCN2C(=O)CNC(=O)[C@H](C)NC(=O)[C@H](CCCNC(=N)N)NC(=O)[C@@H](NC(=O)CNC(=O)[C@@H](NC(=O)[C@H](CCC(=O)O)NC(=O)[C@@H](N)CO)C(C)C)CSSC[C@@H](C(=O)N[C@@H](CCC(=O)O)C(=O)N[C@@H](CCCCN)C(=O)N[C@@H](Cc2ccc(O)cc2)C(=O)N[C@@H](Cc2ccccc2)C(=O)NCC(N)=O)NC1=O [bp1-02] (H-SEVGCRAGPLQWLCEKYFG-NH2; disulfide 5-14; N-terminus assumed),effect on IGF-I activity in KIRA with IGF-I plus IGFBP-3,IGFBP-3 [2],Neither of these peptides showed activity
same,IC50,IGFBP-1 [3],~0.05 µM and 0.05 µM
same,IGF-I Inhibition IC50 (mut)/IC50 (wt),IGFBP-1 [3]; [13],0.37
same,kon,IGFBP-1 [8]; read-out: association rate constant,230000 M⁻¹ s⁻¹
same,koff,IGFBP-1 [8]; read-out: dissociation rate constant / dissociation kinetics,0.0503 s⁻¹
same,inhibition of biotinylated IGFBP-3 binding to IGF-I plate,IGFBP-3 [10],no inhibition
same,IC50,IGFBP-1 [4],0.187 µM
SEVGCRAGPLQWLCEKYF [HL-1],inhibition of phage binding to IGFBP-1 by IGF-I in phage titration,IGFBP-1 [12],inhibited by IGF-I for binding to IGFBP-1 at some phage concentration
